Reference: patent USRE42890E1, “Furazanobenzimidazoles” (Basilea Pharmaceutica AG, priority 2003, dated 2011)
Where two headings read alike, the source gives them in different places.

Tests used:
Jily = experiment: MTS proliferation assay, Jily; format: cell-based; settings: 72 h incubation, read-out: MTS proliferation assay IC 50 Jily
Description: (§1) Cell lines are cultured in RPMI-1640 tissue culture medium containing either 5% or 10% fetal calf serum, 0.05 mM 2-mercaptoethanol, 2 mM glutamine and penicillin/streptomycin 50 μg/ml (complete medium) (Sigma, Buchs, Switzerland). General growth conditions are 37° C. and 7.5% CO2.
(§2) The assay is performed in 96 well tissue culture plates. The cells (range: 1.5*10^3-10^4) are seeded out in 80 μl complete medium 24 h prior to compound treatment. The test compounds are added in 20 μl complete medium containing max 5% DMSO. The final compound concentrations in the assays are 10 μM, 3 μM, 1 μM and 0.3 μM, respectively. The assay plates are incubated for 72 h at culture conditions. The MTS reagent is prepared according to the manufacturer's protocol (Promega G1111). 20 μl MTS reagent are added to each well, the assay plates are quickly spun and incubated for another 3 h at culture conditions. Subsequently, the plates are shortly shaked and absorption measured with a microplate-reader at 492 nm.

HeLa = experiment: MTS proliferation assay, HeLa; format: cell-based, human; settings: 72 h incubation, read-out: MTS proliferation assay IC 50 HeLa
Outline: (§3)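 Human lines, EGFP-transfected or not, grow in RPMI-1640 plus 5% or 10% FCS and 2-mercaptoethanol. They receive test compound for 72 h at final concentrations of 10, 3, 1 and 0.3 μM, and MTS conversion is measured at 492 nm.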

[1] = test system: adherent cells or suspension cells; experiment: Hoechst 33342 nuclear staining (fraction of apoptotic nuclei); format: cell-based; parameters: key: 0 relating to no activity; 1 relating to weak activity comprising less than 70% of the cells; score 2 relating to strong activity comprising more than 70% of the cells
Jurkat = experiment: MTS proliferation assay, Jurkat; format: cell-based, human; settings: 72 h incubation, read-out: MTS proliferation assay IC 50 Jurkat
Outline: as §3

HT1080 = experiment: MTS proliferation assay, HT1080; format: cell-based, human; settings: HT1080, 72 h incubation; read-out: MTS proliferation assay IC 50 HT1080
Description: as §1
The following human cell lines (either EGFP transfected or not) are being used: HeLa (ATCC: CCL-2), KB (ATCC: CCL-17), MCF7 (ATCC: HTB-22), SK-BR-3 (ATCC: HTB-30), SK-Mel 1 (ATCC: HTB-67), SK-Mel 28 (ATCC: HTB-72), PC-3 (ATCC: CRL-1435), SW 480 (ATCC: CCL-228), NCl-H460 (ATCC: HTB-177), NCl-H1792 (ATCC: CRL-5895), HT1080 (ATCC: CCL-21), Jurkat (ATCC: TIB-152), Ramos (ATCC: CRL-1596), Raji (ATCC: CCL-86), H9 (ATCC: HTB-176), Hut78 (ATCC: TIB-161), K562 (ATCC: CCL 243), HL-60 (ATCC: CCL 240), U-87MG (ATCC: HTB-14), HepG2 (ATCC: HB-8065), U-2 OS (ATCC: HTB-96), Saos-2 (ATCC: HTB-85), U937 (ATCC: CRL 1593), Hs 578T (ATCC: HTB 126), HBL-100 (ATCC: HTB 124), Molt-4 (ATCC: CRL 1582).
as §2

MRC5 = experiment: MTS proliferation assay, MRC5; format: cell-based; settings: MRC5, 72 h incubation; read-out: MTS proliferation assay IC 50 MRC5
Outline: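 Seed cells in complete RPMI-1640 medium and allow 24 h attachment. Add compounds to final 10 μM, 3 μM, 1 μM or 0.3 μM and incubate 72 h at 37° C. Add MTS, incubate 3 h more, then measure absorption at 492 nm.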

SMILES | IC50 (Jurkat) | IC50 (HT1080) | Hoechst 33342 nuclear staining score ([1]; H460, conc 0.01 μm) | Hoechst 33342 nuclear staining score ([1]; H460, conc 0.1 μm) | Hoechst 33342 nuclear staining score ([1]; H460, conc 1 μm) | Hoechst 33342 nuclear staining score ([1]; HeLa, conc 0.01 μm) | Hoechst 33342 nuclear staining score ([1]; HeLa, conc 0.1 μm) | Hoechst 33342 nuclear staining score ([1]; HeLa, conc 1 μm) | Hoechst 33342 nuclear staining score ([1]; Jily, conc 0.01 μm) | Hoechst 33342 nuclear staining score ([1]; Jily, conc 0.1 μm) | Hoechst 33342 nuclear staining score ([1]; Jily, conc 1 μm) | Hoechst 33342 nuclear staining score ([1]; Jurkat, conc 0.01 μm) | Hoechst 33342 nuclear staining score ([1]; Jurkat, conc 0.1 μm) | Hoechst 33342 nuclear staining score ([1]; Jurkat, conc 1 μm) | Hoechst 33342 nuclear staining score ([1]; MRC5, conc 0.01 μm) | Hoechst 33342 nuclear staining score ([1]; MRC5, conc 0.1 μm) | Hoechst 33342 nuclear staining score ([1]; MRC5, conc 1 μm) | Hoechst 33342 nuclear staining score ([1]; PBLs, conc 0.01 μm) | Hoechst 33342 nuclear staining score ([1]; PBLs, conc 0.1 μm) | Hoechst 33342 nuclear staining score ([1]; PBLs, conc 1 μm) | also measured
O=C(Cn1c(-c2nonc2NCCCO)nc2ccccc21)c1ccc(Cl)cc1 [Example 11, 4-[1-(4-Chlorophenacyl)-1H-benzimidazol-2-yl]-furazan-3-yl-N-(3-hydroxypropyl)-amine] |  |  | 0 | 0 | 2 (score 2 relating to strong activity comprising more than 70% of the cells) | 0 | 1 (1 relating to weak activity comprising less than 70% of the cells) | 2 (score 2 relating to strong activity comprising more than 70% of the cells) | 0 | 2 (score 2 relating to strong activity comprising more than 70% of the cells) | 2 (score 2 relating to strong activity comprising more than 70% of the cells) | 0 | 2 (score 2 relating to strong activity comprising more than 70% of the cells) | 2 (score 2 relating to strong activity comprising more than 70% of the cells) | 0 | 1 (1 relating to weak activity comprising less than 70% of the cells) | 2 (score 2 relating to strong activity comprising more than 70% of the cells) | 0 | 0 | 0 | IC50 (Jily): 10 to 100 nM; IC50 (HeLa; Homo sapiens): 100 to 1000 nM
COc1cc2nc(-c3nonc3N)n(CC(=O)c3ccc(Br)cc3)c2cc1OC [Example 115] | > 1000 nM | > 1000 nM | 0 | 0 | 0 | 0 | 0 | 0 | 0 | 0 | 0 | 0 | 0 | 0 | 0 | 0 | 0 | 0 | 0 | 0 | IC50 (HeLa): > 1000 nM; IC50 (MRC5): > 1000 nM
COc1ccc(C(=O)Cn2c(-c3nonc3N)nc3cc(OC)c(OC)cc32)cc1 [Example 116] | > 1000 nM | > 1000 nM | 0 | 0 | 0 | 0 | 0 | 0 | 0 | 0 | 0 | 0 | 0 | 0 | 0 | 0 | 0 | 0 | 0 | 0 | IC50 (HeLa): > 1000 nM; IC50 (MRC5): > 1000 nM

Second part, led by results:

IC50 (Jurkat) | IC50 (HT1080) | SMILES | Hoechst 33342 nuclear staining score ([1]; H460, conc 0.01 μm) | Hoechst 33342 nuclear staining score ([1]; H460, conc 0.1 μm) | Hoechst 33342 nuclear staining score ([1]; H460, conc 1 μm) | Hoechst 33342 nuclear staining score ([1]; HeLa, conc 0.01 μm) | Hoechst 33342 nuclear staining score ([1]; HeLa, conc 0.1 μm) | Hoechst 33342 nuclear staining score ([1]; HeLa, conc 1 μm) | Hoechst 33342 nuclear staining score ([1]; Jily, conc 0.01 μm) | Hoechst 33342 nuclear staining score ([1]; Jily, conc 0.1 μm) | Hoechst 33342 nuclear staining score ([1]; Jily, conc 1 μm) | Hoechst 33342 nuclear staining score ([1]; Jurkat, conc 0.01 μm) | Hoechst 33342 nuclear staining score ([1]; Jurkat, conc 0.1 μm) | Hoechst 33342 nuclear staining score ([1]; Jurkat, conc 1 μm) | Hoechst 33342 nuclear staining score ([1]; MRC5, conc 0.01 μm) | Hoechst 33342 nuclear staining score ([1]; MRC5, conc 0.1 μm) | Hoechst 33342 nuclear staining score ([1]; MRC5, conc 1 μm) | Hoechst 33342 nuclear staining score ([1]; PBLs, conc 0.01 μm) | Hoechst 33342 nuclear staining score ([1]; PBLs, conc 0.1 μm) | Hoechst 33342 nuclear staining score ([1]; PBLs, conc 1 μm) | also measured
> 1000 nM | > 1000 nM | COc1cc2nc(-c3nonc3N)n(CC(=O)c3ccc(Cl)cc3)c2cc1OC [Example 114] | 0 | 0 | 0 | 0 | 0 | 0 | 0 | 0 | 0 | 0 | 0 | 0 | 0 | 0 | 0 | 0 | 0 | 0 | IC50 (HeLa): > 1000 nM; IC50 (MRC5): > 1000 nM
> 1000 nM | > 1000 nM | Cc1cc2nc(-c3nonc3N)n(CC(=O)c3ccc(-c4ccccc4)cc3)c2cc1C [Example 112] | 0 | 0 | 0 | 0 | 0 | 0 | 0 | 0 | 0 | 0 | 0 | 0 | 0 | 0 | 0 | 0 | 0 | 0 | IC50 (HeLa): > 1000 nM; IC50 (MRC5): > 1000 nM
> 1000 nM | > 1000 nM | COc1cc2nc(-c3nonc3N)n(CC(=O)c3ccc(-c4ccccc4)cc3)c2cc1OC [Example 117] | 0 | 0 | 0 | 0 | 0 | 0 | 0 | 0 | 0 | 0 | 0 | 0 | 0 | 0 | 0 | 0 | 0 | 0 | IC50 (HeLa): > 1000 nM; IC50 (MRC5): > 1000 nM
